Results published in patent US20250339569A1, “CARBONIC ANHYDRASE IX LIGANDS” (priority 2021, published 2025).
Where two headings read alike, the source gives them in different places. Starred links: 1 amine or outer side, 2 acyl side, 3 side chain; linkers in the order of their positions; H or OH if unused. Positions of bridges follow the written chain, without caps; N, C: chain ends. Non-standard residues stand in square brackets, D forms with d. Residues, ends and D or L forms follow the SMILES beside them. *: point of attachment. Phe(3-NHCO(CH2)3SO2NH2) = N[C@@H](Cc1cccc(NC(=O)CCCS(N)(=O)=O)c1)C(=O)O; DOTA = O=C(O)CN1CCN(CC(=O)O)CCN(CC(=O)*)CCN(CC(=O)O)CC1; mXylylene = c1cc(C[*:1])cc(C[*:2])c1; X2 = O=C(CN1CCC(N[*:1])CC1)[*:2]; Dap = NC[C@H](N)C(=O)O

How the values were obtained:
[1] = target: T1, human carbonic anhydrase IX (hCAIX-Fc) (Homo sapiens, UniProt Q16790); experiment: Surface plasmon resonance assay with hCAIX-Fc; assay type: binding; details: for t1/2 category (activity): SPR dissociation half-life, hCAIX-Fc
T1 construct: purchased SinoBliological (Sino Biological) 10107-H02H

dog CAIX = experiment: Radioligand binding assay, 111In-labeled compounds, CHO-VGT cells with dog CAIX; details: 111In-labeled compound, 8 h at 37°C
Description: (§1) In order to assess the affinity of ^111In-labeled compounds to CAIX of different species, a radioligand binding assay was established.
(§2) CHO-VGT cells were transfected with the human, dog, and mouse CAIX (InSCREENex GmbH) and cultured in Ham's F-12 medium (Sigma-Aldrich #N4888) supplemented with 10% fetal bovine serum (FCS), 2 mM L-glutamine, 100 U/mL Penicillin, and 0.1 mg/mL streptomycin. Cells were detached with Accutase (Biolegend #423201) and counted using a particle counter (CASY Model TT; Scharfe Systems, Germany). Cell concentrations were adjusted to 3×10^5 mL^−1, and 1.000 μL of the suspension per well were dispensed into flat-clear-bottom 24 well plates.
(§3) Approximately 24 hours after re-seeding, the medium was aspirated and the cells were washed once with 1000 μL assay medium (Ham's medium without additives). To determine total binding, 700 μL of assay medium and 100 μL of the radioligand dilutions were added to the wells in triplicates. To determine non-specific binding, 600 μL of binding medium, 100 μL of the radioligand dilutions and 100 μL of a blocking solution containing 8 μM non-labeled compound were added to the wells in triplicates. At the end of incubation time (8 h at 37° C.), cells were washed and subsequently harvested in 300 μL RIPA buffer (Thermo Scientific #89901) containing Protease Inhibitor Cocktail Set I (Calbiochem #539131). Radioactivity of the cell lysate of each well was counted using a gamma counter (1470 Wizard, PerkinElmer, USA). An aliquot of each radioligand dilution was included in the gamma counter measurements to allow for determination of their actual concentrations via their known specific activity.

CAXII (hCAXII-bio) = target: T2, CAXII (hCAXII-bio) (Homo sapiens, UniProt O43570); experiment: SPR selectivity assay with biotinylated CAXII; assay type: binding; details: SPR, biotinylated CAXII; read-out: pKD category (affinity) CAXII (converted)
T2 construct: purchased SinoBliological (Sino Biological) 10617-H08H
T2 sequence (O43570 25-354): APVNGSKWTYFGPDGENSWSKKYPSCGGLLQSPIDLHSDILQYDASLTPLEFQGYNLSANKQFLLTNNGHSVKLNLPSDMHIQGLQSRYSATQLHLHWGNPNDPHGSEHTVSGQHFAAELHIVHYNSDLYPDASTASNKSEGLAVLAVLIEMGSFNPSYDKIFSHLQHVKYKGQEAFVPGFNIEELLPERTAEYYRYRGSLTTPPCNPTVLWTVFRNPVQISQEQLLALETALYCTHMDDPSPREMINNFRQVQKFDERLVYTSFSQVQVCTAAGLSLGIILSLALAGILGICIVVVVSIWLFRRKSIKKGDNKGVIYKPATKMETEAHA
Description: (§4) In order to test selectivity of CAIX-binding peptides toward CAIV (SinoBliological, Cat #10472-1H081H), CAXII (SinoBliological, Cat #10617-H08H or CAXIV (SinoBliological, Cat #10458-H08H), SPR assays were performed analog to the assay described above but with a different target capture procedure. For immobilization, the carbonic anhydrases were biotinylated and capture on the SPR chip using the Biotin CAPture Kit (cytiva) according to the manufacturer instructions using HBSTE, 0.1% as Running Buffer.
(§5) Table 13 describes the protocol steps for biotinylated target capturing and assessment of the binding kinetics.

mouse CAIX = target: T3, mouse CAIX (Mus musculus, UniProt Q8VHB5); experiment: Radioligand binding assay, 111In-labeled compounds, CHO-VGT cells with mouse CAIX; details: 111In-labeled compound, Mouse CAIX, 8 h at 37°C; read-out: pKD category (activity) (converted)
T3 construct: host or cells: CHO-VGT / CHO cells
T3 sequence (Q8VHB5 32-437): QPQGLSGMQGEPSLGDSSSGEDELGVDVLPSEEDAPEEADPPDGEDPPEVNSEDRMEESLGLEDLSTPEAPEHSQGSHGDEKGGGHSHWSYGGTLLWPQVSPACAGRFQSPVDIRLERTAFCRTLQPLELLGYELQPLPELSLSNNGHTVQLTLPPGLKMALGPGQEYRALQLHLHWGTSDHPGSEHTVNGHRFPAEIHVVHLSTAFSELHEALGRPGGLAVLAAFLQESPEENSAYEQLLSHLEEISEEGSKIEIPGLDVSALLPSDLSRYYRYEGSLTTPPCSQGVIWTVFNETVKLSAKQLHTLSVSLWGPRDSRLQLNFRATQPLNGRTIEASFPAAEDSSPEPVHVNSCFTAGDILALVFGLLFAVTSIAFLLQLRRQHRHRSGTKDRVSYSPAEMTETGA
Description: as §1, §2, §3

in vitro [2] = details: human, plasma
CAXIV (hCAXIV-bio) = target: T4, CAXIV (hCAXIV-bio) (Homo sapiens, UniProt Q9ULX7); experiment: SPR selectivity assay with biotinylated CAXIV; assay type: binding; details: SPR, biotinylated CAXIV; read-out: pKD category (affinity) CAXIV (converted)
T4 construct: purchased SinoBliological (Sino Biological) 10458-H08H
T4 sequence (Q9ULX7 16-337): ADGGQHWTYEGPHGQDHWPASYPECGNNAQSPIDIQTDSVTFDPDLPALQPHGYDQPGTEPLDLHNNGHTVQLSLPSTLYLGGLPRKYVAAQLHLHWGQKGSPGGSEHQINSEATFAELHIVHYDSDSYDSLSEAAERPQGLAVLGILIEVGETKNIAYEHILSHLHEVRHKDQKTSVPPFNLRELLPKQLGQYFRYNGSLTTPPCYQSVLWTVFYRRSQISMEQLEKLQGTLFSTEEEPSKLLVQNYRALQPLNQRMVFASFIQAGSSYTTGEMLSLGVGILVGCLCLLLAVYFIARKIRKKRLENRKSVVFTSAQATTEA
Description: as §4, §5

CAIV (hCAIV-bio) = target: T5, CAIV (hCAIV-bio) (Homo sapiens, UniProt P22748); experiment: SPR selectivity assay with biotinylated CAIV; assay type: binding; details: SPR, biotinylated CAIV; read-out: pKD category (affinity) CAIV (converted)
T5 construct: purchased SinoBliological (Sino Biological) 10472-1H081H
T5 sequence (P22748 19-284): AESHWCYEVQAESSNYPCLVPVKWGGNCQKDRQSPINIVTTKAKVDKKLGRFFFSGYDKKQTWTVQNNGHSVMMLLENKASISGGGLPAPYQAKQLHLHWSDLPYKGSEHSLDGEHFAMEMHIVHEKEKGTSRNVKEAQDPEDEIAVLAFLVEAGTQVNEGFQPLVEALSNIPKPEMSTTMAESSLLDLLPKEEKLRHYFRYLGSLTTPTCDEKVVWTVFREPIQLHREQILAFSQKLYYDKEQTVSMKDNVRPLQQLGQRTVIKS
Description: as §4, §5

in vitro [3] = details: mouse, plasma
human CAIX = human CAIX (Homo sapiens, UniProt Q16790); experiment: Radioligand binding assay, 111In-labeled compounds, CHO-VGT cells with human CAIX; parameters: host or cells: CHO-VGT / CHO cells; details: 111In-labeled compound, Human CAIX, 8 h at 37°C; read-out: pKD category (activity) (converted)
Description: as §1, §2, §3

[4] = target: T6, CAIX-expressing human HT-29 colorectal cancer cells (Homo sapiens, UniProt Q16790); experiment: FACS binding assay (IC50 determination, competition with tracer 3BP-2776 or 3BP-4149); details: 4° C., 1 hour, read-out: pIC50 category (activity) (converted)
T6 construct: CAIX-expressing human HT-29 colorectal cancer cells; host or cells: HT-29 human colorectal cancer cells
Summary of the method: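 HT-29 cells in FACS buffer (PBS, 1% FCS) at 500.000 cells/ml were exposed to compounds competing with a labelled tracer, with biotinylated compounds detected by 1 μg/mL APC-streptavidin for 30 min on ice. APC/Cy5 median fluorescence was read by flow cytometry and IC50 derived by 4PL fit.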

[5] = target: T7, Recombinant soluble human NEP (Homo sapiens, UniProt P08473); experiment: Proteolytic stability assay against NEP; assay type: in vitro ADME; details: 100 ng/mL NEP, 10 μM compound, 37°C
T7 construct: Recombinant soluble human NEP; purchased BioTechne, Wiesbaden, Germany
T7 sequence (P08473 52-750 limits assumed): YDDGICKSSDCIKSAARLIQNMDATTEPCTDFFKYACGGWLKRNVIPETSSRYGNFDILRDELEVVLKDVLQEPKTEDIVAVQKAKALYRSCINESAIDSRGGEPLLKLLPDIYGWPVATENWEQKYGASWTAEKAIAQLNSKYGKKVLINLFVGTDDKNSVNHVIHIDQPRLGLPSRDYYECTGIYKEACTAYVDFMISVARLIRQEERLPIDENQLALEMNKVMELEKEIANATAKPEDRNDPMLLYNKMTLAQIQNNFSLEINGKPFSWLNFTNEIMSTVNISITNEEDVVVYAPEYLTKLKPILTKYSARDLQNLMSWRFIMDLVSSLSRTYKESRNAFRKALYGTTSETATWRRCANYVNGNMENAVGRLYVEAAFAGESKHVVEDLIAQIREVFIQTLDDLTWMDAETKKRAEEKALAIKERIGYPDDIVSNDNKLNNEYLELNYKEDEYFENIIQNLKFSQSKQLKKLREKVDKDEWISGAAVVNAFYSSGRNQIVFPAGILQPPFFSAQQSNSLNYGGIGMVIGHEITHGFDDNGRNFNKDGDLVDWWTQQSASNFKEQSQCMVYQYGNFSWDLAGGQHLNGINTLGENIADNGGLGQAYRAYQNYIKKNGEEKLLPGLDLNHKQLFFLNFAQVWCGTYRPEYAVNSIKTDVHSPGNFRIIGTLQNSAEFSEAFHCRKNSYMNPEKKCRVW
Description: To assess the stability of compounds against NEP, the compounds were subjected to an in vitro assay based on the protocol described by Edelson et al. (Edelson et al., Pulmonary pharmacology & therapeutics, 2013, 26, 229-238).
Recombinant soluble human NEP (BioTechne, Wiesbaden, Germany) at a concentration of 100 ng/mL was mixed with the compound (10 μM) and a stable internal standard (10 μM) and incubated at 37° C. After several time points, samples were taken and analyzed with LC-MS.
The activity of NEP was examined using a commercially available chromogenic substrate of NEP.

[6] = Plasma stability assay, mouse plasma; details: mouse plasma, 37°C, 24 h
[7] = Plasma stability assay, human plasma; details: 37°C
[8] = human, plasma
[9] = mouse, plasma, 24 h

For `CC(C)C[C@@H]1NC(=O)[C@H](Cc2cccc(NC(=O)CCCS(N)(=O)=O)c2)NC(=O)[C@H](CC(=O)O)NC(=O)[C@H]2CCCN2C(=O)[C@H](CCC(=O)O)NC(=O)[C@@H]2CSCc3cccc(c3)CSC[C@@H](C(N)=O)NC(=O)[C@H](CNC(=O)CC[C@H](NC(=O)CN3CCN(CC(=O)O)CCN(CC(=O)O)CCN(CC(=O)O)CC3)C(=O)N2)NC(=O)[C@H](Cc2c[nH]c3ccccc23)NC(=O)[C@H]([C@@H](C)O)NC1=O` [3BP-4503, DOTA-{Glu-[Cys(3MeBn)-Glu-pro-Asp-Af3(Cpsu)-Leu-Thr-Trp-Dap}-Cys]-NH2] ({DOTA}-ECE[dP]D[Phe(3-NHCO(CH2)3SO2NH2)]LTW[Dap]C-NH2; lactam 1-10; linker 2-11 via mXylylene), the “t1/2 category (activity)” value ([1]; 25° C.) was “A (t1/2>15.0 minutes)”, the “pKD category (affinity) CAIX” value ([1]; SPR, hCAIX) was “A (pKD values >8.0)” and the Kd ([1]; SPR, hCAIX-Fc captured, 25° C., read-out: pKD category (activity) (converted)) was under 10 nM. The “pKD category (activity)” value (dog CAIX) was “A (pKD values >8.0)”, the Kd (CAXII (hCAXII-bio)) was over 1000 nM and the Kd (mouse CAIX) was under 10 nM. It also gave a remaining at 24 h, […] (in vitro [2]) of over 95%, a Kd (CAXIV (hCAXIV-bio)) of over 1000 nM and a Kd (CAIV (hCAIV-bio)) of over 1000 nM. It also gave a remaining at 24 h, […] (in vitro [3]) of over 95%, a Kd (human CAIX) of under 10 nM and an IC50 ([4]; FACS binding assay, HT-29 cells, competition with tracer 3BP-2776 (10 nM, biotin-labeled)) of under 10 nM.

In the case of `CC(C)C[C@@H]1NC(=O)[C@H](Cc2c[nH]c3ccccc23)NC(=O)[C@H](CC(=O)O)NC(=O)[C@H]2CCCN2C(=O)[C@H](CCC(=O)O)NC(=O)[C@@H](NC(=O)[C@H](Cc2ccc(O)cc2)NC(=O)[C@@H](NC(=O)CN2CCC(NC(=O)CN3CCN(CC(=O)O)CCN(CC(=O)O)CCN(CC(=O)O)CC3)CC2)C(C)C)CSCc2cccc(c2)CSC[C@@H](C(N)=O)NC(=O)[C@H](CO)NC(=O)[C@H](Cc2c[nH]c3ccccc23)NC(=O)[C@H]([C@@H](C)O)NC1=O` [3BP-3583, DOTA-APAc-Val-Tyr-[Cys(3MeBn)-Glu-pro-Asp-Trp-Leu-Thr-Trp-Ser-Cys]-NH2] ({DOTA}-[X2]VYCE[dP]DWLTWSC-NH2; linker 4-13 via mXylylene), the “% intact compound remaining after 24 h incubation” value [5] is reported as over 95%, the “t1/2 category (activity)” value ([1]; 25° C.) is reported as “A (t1/2>15.0 minutes)” and the “pKD category (activity)” value (dog CAIX) is reported as “A (pKD values >8.0)”. The Kd (CAXII (hCAXII-bio)) was over 1000 nM, the Kd (mouse CAIX) was 100 to 794 nM and the Kd (CAXIV (hCAXIV-bio)) was over 1000 nM. For the same compound, the Kd (CAIV (hCAIV-bio)) was over 1000 nM, the “% intact compound remaining (incubation time)” value [6] was 79% and the “% intact compound remaining after 24 h incubation” value [7] was 71%. The IC50 ([4]; FACS competition on HT-29 cells, Tracer ID 3BP-2776 (10 nM, biotin-labeled)) was under 10 nM.

For `CC(C)C[C@@H]1NC(=O)[C@H](Cc2ccc(NC(=O)CCS(N)(=O)=O)cc2)NC(=O)[C@H](CC(=O)O)NC(=O)[C@H]2CCCN2C(=O)[C@H](CCC(=O)O)NC(=O)[C@@H](NC(=O)[C@H](CCC(N)=O)NC(=O)CN2CCN(CC(=O)O)CCN(CC(=O)O)CCN(CC(=O)O)CC2)CSCc2cccc(c2)CSC[C@@H](C(N)=O)NC(=O)[C@H](CO)NC(=O)[C@H](Cc2c[nH]c3ccccc23)NC(=O)[C@H]([C@@H](C)O)NC1=O` (natLu complex, metal not drawn) [3BP-4581], the “% intact compound remaining after 24 h incubation” value [8] was over 95% and the “% intact compound remaining (incubation time)” value [9] was over 95%.
